Results taken from patent US20230265105A1, “MACROCYCLIC 7-PYRAZOL-5-YL-INDOLE DERIVATIVES AS INHIBITORS OF MCL-1” (Janssen Pharmaceutica NV, priority 2020, published 2023).

Tests used:
[1] = system: MOLP-8 human multiple myeloma cell line; assay: MOLP8 Caspase-Glo 3/7 apoptosis induction assay; type: cell-based; conditions: MOLP-8 cells, 2 hours at 37° C., 30 μM highest conc., averaged over all runs on all batches
Text: MCL-1 is a regulator of apoptosis and is highly over-expressed in tumor cells that escape cell death. The assay evaluates the cellular potency of small-molecule compounds targeting regulators of the apoptosis pathway, primarily MCL-1, Bfl-1, Bcl-2, and other proteins of the Bcl-2 family. Protein-protein inhibitors disrupting the interaction of anti-apoptotic regulators with BH3-domain proteins initiate apoptosis.
The Caspase-Glo® 3/7 Assay is a luminescent assay that measures caspase-3 and -7 activities in purified enzyme preparations or cultures of adherent or suspension cells. The assay provides a proluminescent caspase-3/7 substrate, which contains the tetrapeptide sequence DEVD. This substrate is cleaved to release aminoluciferin, a substrate of luciferase used in the production of light. Addition of the single Caspase-Glo® 3/7 Reagent in an “add-mix-measure” format results in cell lysis, followed by caspase cleavage of the substrate and generation of a “glow-type” luminescent signal.
This assay uses the MOLP-8 human multiple myeloma cell line, which is sensitive to MCL-1 inhibition.
Cell cultures were maintained between 0.2 and 2.0×10^6 cells/mL. The cells were harvested by collection in 50 mL conical tubes. The cells were then pelleted at 500 g for 5 mins before removing supernatant and resuspension in fresh pre-warmed culture medium. The cells were counted and diluted as needed.
The assay reagent was prepared by transferring the buffer solution to the substrate vial and mixing. The solution may be stored for up to 1 week at 4° C. with negligible loss of signal.
Compounds were delivered in assay-ready plates (Proxiplate) and stored at −20° C.
Assays always include 1 reference compound plate containing reference compounds. The plates were spotted with 40 nL of compounds (0.5% DMSO final in cells; serial dilution; 30 μM highest conc. 1/3 dilution, 10 doses, duplicates). The compounds were used at room temperature and 4 μL of pre-warmed media was added to all wells except column 2 and 23. The negative control was prepared by adding 1% DMSO in media. The positive control was prepared by adding the appropriate positive control compound in final concentration of 60 μM in media. The plate was prepared by adding 4 μL negative control to column 23, 4 μL positive control to column 2 and 4 μL cell suspension to all wells in the plate. The plate with cells was then incubated at 37° C. for 2 hours. The assay signal reagent is the Caspase-Glo solution described above, and 8 μL was added to all wells. The plates were then sealed and measured after 30 minutes.
The activity of a test compound was calculated as percent change in apoptosis induction as follows:
[formula] [formula] % Effect (AC50)=100−((sample−LC)/(HC−LC))*100
% Control=(sample/HC)*100
% Control min=(sample−LC)/(HC−LC)*100

[2] = biological target: Myeloid Cell Leukemia 1 (Mcl-1) (Homo sapiens, UniProt Q07820); assay: Terbium labeled Mcl-1 HTRF binding assay with Cy5-labeled BIM BH3 peptide; conditions: Ki=IC50/(1+[L]/Kd), [L]=8 nM, Kd=10 nM, 60 min incubation at room temperature, read-out: Tb-MCL1 Ki
Chain of Myeloid Cell Leukemia 1 (Mcl-1) (Q07820 whole entry): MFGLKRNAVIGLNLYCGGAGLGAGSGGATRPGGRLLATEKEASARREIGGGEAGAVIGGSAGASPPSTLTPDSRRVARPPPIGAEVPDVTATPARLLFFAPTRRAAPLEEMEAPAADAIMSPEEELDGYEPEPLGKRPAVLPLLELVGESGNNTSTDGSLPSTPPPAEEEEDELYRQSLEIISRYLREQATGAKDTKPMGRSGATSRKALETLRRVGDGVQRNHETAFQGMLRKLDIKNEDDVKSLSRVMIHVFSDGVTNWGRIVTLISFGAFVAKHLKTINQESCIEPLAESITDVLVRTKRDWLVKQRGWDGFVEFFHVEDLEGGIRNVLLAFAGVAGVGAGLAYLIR
Description: Terbium labeled Myeloid Cell Leukemia 1 (Mcl-1) homogeneous time-resolved fluorescence (HTRF) binding assay utilizing the BIM BH3 peptide (H2N-(C/Cy5Mal) WIAQELRRIGDEFN-OH) as the binding partner for Mcl-1.
This assay evaluated inhibition of the BH3 domain: Mcl-1 interaction by measuring the displacement of Cy5-labeled BIM BH3 peptide (H2N—(C/Cy5Mal) WIAQELRRIGDEFN-OH) in the HTRF assay format.
The following assay and stock buffers were prepared for use in the assay: (a) Stock buffer: 10 mM Tris-HCl, pH=7.5+150 mM NaCl, filtered, sterilized, and stored at 4° C.; and (b) 1×assay buffer, where the following ingredients were added fresh to stock buffer: 2 mM dithiothreitol (DTT), 0.0025% Tween-20, 0.1 mg/mL bovine serum albumin (BSA). The 1×Tb-Mcl-1+Cy5 Bim peptide solution was prepared by diluting the protein stock solution using the 1×assay buffer (b) to 25 pM Tb-Mcl-1 and 8 nM Cy5 Bim peptide.
Using the Acoustic ECHO, 100 nL of 100×test compound(s) were dispensed into individual wells of a white 384-well Perkin Elmer Proxiplate, for a final compound concentration of 1× and final DMSO concentration of 1%. Inhibitor control and neutral control (NC, 100 nL of 100% DMSO) were stamped into columns 23 and 24 of assay plate, respectively. Into each well of the plate was then dispensed 10 μL of the 1×Tb-Mcl-1+Cy5 Bim peptide solution. The plate was centrifuged with a cover plate at 1000 rpm for 1 minute, then incubated for 60 minutes at room temperature with plates covered.
The TR-FRET signal was read on an BMG PHERAStar FSX MicroPlate Reader at room temperature using the HTRF optic module (HTRF: excitation: 337 nm, light source: laser, emission A: 665 nm, emission B: 620 nm, integration start: 60 μs, integration time: 400 μs).
The BMG PHERAStar FSX MicroPlate Reader was used to measure fluorescence intensity at two emission wavelengths—665 nm and 620 nm—and report relative fluorescence units (RFU) for both emissions, as well as a ratio of the emissions (665 nm/620 nm)*10,000. The RFU values were normalized to percent inhibition as follows:
% inhibition=(((NC−IC)−(compound−IC))/(NC−IC))*100
where IC (inhibitor control, low signal)=mean signal of 1×Tb-MCl-1+Cy5 Bim peptide+inhibitor control or 100% inhibition of Mcl-1; NC (neutral control, high signal)=mean signal 1×Tb-MCl-1+Cy5 Bim peptide with DMSO only or 0% inhibition
An 11-point dose response curve was generated to determine IC50 values (using GenData) based on the following equation:
Y=Bottom+(Top−Bottom)/(1+10^((log IC50−X)*HillSlope))
where Y=% inhibition in the presence of X inhibitor concentration; Top=100% inhibition derived from the IC (mean signal of Mcl-1+inhibitor control); Bottom=0% inhibition derived from the NC (mean signal of Mcl-1+DMSO); Hillslope=Hill coefficient; and IC50=concentration of compound with 50% inhibition in relation to top/neutral control (NC).
In this assay [L]=8 nM and Kd=10 nM
Representative compounds of the present invention were tested according to the procedure as described above, with results as listed in the Table below (n.d. means not determined).

| SMILES | AC50 [1] | Ki [2] | AC50 ([1]; Homo sapiens, MOLP-8, 2 h) |
| --- | --- | --- | --- |
| Cc1nn(C)c2c1CSCc1cc(n(C)n1)CSc1cc(c3ccccc3c1)OCCCc1c(C(=O)O)n(C)c3c-2c(Cl)ccc13 (single isomer, unassigned) [Compound 1] | 1220 nM | 0.746 nM |  |
| Cc1nn(C)c2c1CSCc1cc(n(C)n1)CSc1cc(c3ccccc3c1)OCCCc1c(C(=O)O)n(C)c3c-2c(Cl)ccc13 (single isomer, unassigned) [Compound 2] | 54 nM | 0.039 nM |  |
| COCCOCc1nn(C)c2c1CSCc1cc(n(C)n1)CCc1cc(c3ccccc3c1)OCCCc1c(C(=O)O)n(C)c3c-2c(Cl)ccc13 (single isomer, unassigned) [Compound 3] | > 30000 nM | 98.2 nM |  |
| COCCOCc1nn(C)c2c1CSCc1cc(n(C)n1)CCc1cc(c3ccccc3c1)OCCCc1c(C(=O)O)n(C)c3c-2c(Cl)ccc13 (single isomer, unassigned) [Compound 4] | 46 nM | 0.023 nM |  |
| Cn1nc2cc1CSc1cc(c3ccccc3c1)OCCCc1c(C(=O)O)n(C)c3c(c(Cl)ccc13)-c1c(cnn1C)CSC2 (single isomer, unassigned) [Compound 6] |  | 0.062 nM | 58 nM |
| COCCOCc1nn(C)c2c1CSCc1cc(n(C)n1)CCc1cc(c3ccc(F)cc3c1)OCCCc1c(C(=O)O)n(C)c3c-2c(Cl)ccc13 (single isomer, unassigned) [Compound 7] | 20400 nM | 52.3 nM |  |
| COCCOCc1nn(C)c2c1CSCc1cc(n(C)n1)CCc1cc(c3ccc(F)cc3c1)OCCCc1c(C(=O)O)n(C)c3c-2c(Cl)ccc13 (single isomer, unassigned) [Compound 8] | 15 nM | 0.025 nM |  |
| Cc1nn(C)c2c1CSCc1cc(n(C)n1)CCc1cc(c3ccc(F)cc3c1)OCCCc1c(C(=O)O)n(C)c3c-2c(Cl)ccc13 (single isomer, unassigned) [Compound 9] | 8960 nM | 18.7 nM |  |
| Cc1nn(C)c2c1CSCc1cc(n(C)n1)CCc1cc(c3ccc(F)cc3c1)OCCCc1c(C(=O)O)n(C)c3c-2c(Cl)ccc13 (single isomer, unassigned) [Compound 10] | 10 nM | 0.307 nM |  |
| Cc1nn(C)c2c1CSCc1cc(n(C)n1)CCc1cc(c3ccc(F)cc3c1)OCCCc1c(C(=O)O)n(C)c3c-2c(Cl)ccc13 (single isomer, unassigned) [Compound 10a] | 68 nM | 0.041 nM |  |
| Cc1nn(C)c2c1CSCc1cc(n(C)n1)CCc1cc(c3ccccc3c1)OCCCc1c(C(=O)O)n(C)c3c-2c(Cl)ccc13 (single isomer, unassigned) [Compound 11] | 1620 nM | 3.02 nM |  |
| Cc1nn(C)c2c1CSCc1cc(n(C)n1)CCc1cc(c3ccccc3c1)OCCCc1c(C(=O)O)n(C)c3c-2c(Cl)ccc13 (single isomer, unassigned) [Compound 11a] | 2380 nM | 3.68 nM |  |
| Cc1nn(C)c2c1CSCc1cc(n(C)n1)CCc1cc(c3ccccc3c1)OCCCc1c(C(=O)O)n(C)c3c-2c(Cl)ccc13 (single isomer, unassigned) [Compound 12a] | 29 nM | 0.031 nM |  |
| CCn1c(C(=O)O)c2c3ccc(Cl)c(c31)-c1c(cnn1C)CCCc1cc(n(C)n1)CCc1cc(c3ccc(F)cc3c1)OCCC2 (single isomer, unassigned) [Compound 13] | 22 nM | 0.051 nM |  |
| CCn1c(C(=O)O)c2c3ccc(Cl)c(c31)-c1c(cnn1C)CCCc1cc(n(C)n1)CCc1cc(c3ccc(F)cc3c1)OCCC2 (single isomer, unassigned) [Compound 14] | 3460 nM | 6.15 nM |  |
| COCCOCc1nn(C)c2c1CSCc1cc(n(C)n1)CCc1cc(c3ccc(F)c(F)c3c1)OCCCc1c(C(=O)O)n(C)c3c-2c(Cl)ccc13 (single isomer, unassigned) [Compound 15] | 1400 nM | 2.58 nM |  |
| COCCOCc1nn(C)c2c1CSCc1cc(n(C)n1)CCc1cc(c3ccc(F)c(F)c3c1)OCCCc1c(C(=O)O)n(C)c3c-2c(Cl)ccc13 (single isomer, unassigned) [Compound 16] | 13 nM | 0.021 nM |  |
| COCCOCCc1nn(C)c2c1CSCc1cc(n(C)n1)CCc1cc(c3ccc(F)cc3c1)OCCCc1c(C(=O)O)n(C)c3c-2c(Cl)ccc13 (single isomer, unassigned) [Compound 17] | 15 nM | 0.011 nM |  |
| COCCOCCc1nn(C)c2c1CSCc1cc(n(C)n1)CCc1cc(c3ccc(F)cc3c1)OCCCc1c(C(=O)O)n(C)c3c-2c(Cl)ccc13 (single isomer, unassigned) [Compound 18] | 2430 nM | 2.1 nM |  |
| Cn1nc2cc1CCc1cc(c3ccc(F)cc3c1)OCCCc1c(C(=O)O)n(CCN3CCOCC3)c3c(c(Cl)ccc13)-c1c(cnn1C)CSC2 (single isomer, unassigned) [Compound 19] | 29500 nM | 50.1 nM |  |
| COCCOCCn1c(C(=O)O)c2c3ccc(Cl)c(c31)-c1c(cnn1C)CSCc1cc(n(C)n1)CCc1cc(c3ccc(F)cc3c1)OCCC2 (single isomer, unassigned) [Compound 20] | 30000 nM | 200 nM |  |
| Cn1nc2cc1CCc1cc(c3ccc(F)cc3c1)OCCCc1c(C(=O)O)n(CCN3CCOCC3)c3c(c(Cl)ccc13)-c1c(cnn1C)CSC2 (single isomer, unassigned) [Compound 21] | 82 nM | 0.02 nM |  |
| COCCOCCn1c(C(=O)O)c2c3ccc(Cl)c(c31)-c1c(cnn1C)CSCc1cc(n(C)n1)CCc1cc(c3ccc(F)cc3c1)OCCC2 (single isomer, unassigned) [Compound 22] | 22 nM | 0.029 nM |  |
| COCCn1c(C(=O)O)c2c3ccc(Cl)c(c31)-c1c(cnn1C)CSCc1cc(n(C)n1)CCc1cc(c3ccc(F)cc3c1)OCCC2 (single isomer, unassigned) [Compound 23] | 27 nM | 0.024 nM |  |
